Measurements: ChEMBL document CHEMBL5614432, “NRF2 inhibitors: Recent progress, future design and therapeutic potential” (Eur J Med Chem, 2024)

Legend:
A2780 = assay: Inhibition of cell growth of human A2780 cells incubated for 24 to 96 hrs with re-current replacement of media containing compound for every 48 hrs by CCK8 assay; format: functional, cell-based
Caov-4 = assay: Inhibition of cell growth of human Caov-4 cells incubated for 24 to 96 hrs with re-current replacement of media containing compound for every 48 hrs by CCK8 assay; format: functional, cell-based
SK-OV-3 = assay: Inhibition of cell growth of human SK-OV-3 cells incubated for 24 to 96 hrs with re-current replacement of media containing compound for every 48 hrs by CCK8 assay; format: functional, cell-based
cells = conditions: Homo sapiens, Bel-7402, 48 h
Description: Cytotoxicity against human BEL-7402/ADM cells incubated for 48 hrs by MTT assay

[1] = Cytotoxicity against human Leukemic stem cells incubated for 72 hrs by MTT assay; format: functional, cell-based; conditions: Leukemic stem cell
[2] = target: T1, Nuclear factor erythroid 2-related factor 2 (Homo sapiens, UniProt Q16236); assay: Inhibition of NRF2 in human A549 cells; format: cell-based
T1 sequence (Q16236 whole entry): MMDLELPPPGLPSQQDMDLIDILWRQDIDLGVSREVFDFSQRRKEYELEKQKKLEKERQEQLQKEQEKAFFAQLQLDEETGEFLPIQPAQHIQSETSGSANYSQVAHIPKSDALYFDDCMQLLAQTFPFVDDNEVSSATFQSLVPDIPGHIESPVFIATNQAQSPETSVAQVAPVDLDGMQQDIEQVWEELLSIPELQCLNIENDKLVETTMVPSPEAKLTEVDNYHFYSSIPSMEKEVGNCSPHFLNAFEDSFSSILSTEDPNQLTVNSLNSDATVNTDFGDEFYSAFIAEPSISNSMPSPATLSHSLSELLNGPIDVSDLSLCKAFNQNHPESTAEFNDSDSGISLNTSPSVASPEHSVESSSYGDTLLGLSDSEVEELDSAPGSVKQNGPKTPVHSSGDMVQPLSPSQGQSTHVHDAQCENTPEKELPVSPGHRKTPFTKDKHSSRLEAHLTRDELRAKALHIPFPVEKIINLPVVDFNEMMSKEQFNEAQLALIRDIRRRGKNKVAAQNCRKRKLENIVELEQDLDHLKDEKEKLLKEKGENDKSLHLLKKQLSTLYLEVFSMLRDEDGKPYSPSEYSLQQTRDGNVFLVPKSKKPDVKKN

[3] = target: T1, Nuclear factor erythroid 2-related factor 2; assay: Inhibition of NRF2 in human KYSE-70 cells; format: cell-based
THP-1 = assay: Cytotoxicity against human THP-1 cells incubated for 48 hrs by CCK8 assay; format: functional, cell-based; conditions: THP-1, 48 h
[4] = Cytotoxicity against human MCF7-DOX cells incubated for 24 hrs by MTT assay; format: functional, cell-based
NRF2-MAFG = NRF2-MAFG (Homo sapiens, UniProt O15525+Q16236); assay: Inhibition of NRF2/MAFG (unknown origin) heterodimerization using fluorescein-labeled ARE DNA duplex as substrate preincubated for 1 hr followed by substrate addition measured after 1 hr by FP assay; format: protein-complex assay
U-87 MG = assay: Inhibition of cell viability in human U-87 MG cells incubated for 24 hrs by MTT assay; format: functional, cell-based, U-87MG ATCC
T98G = assay: Inhibition of cell viability in human T98G cells incubated for 24 hrs by MTT assay; format: functional, cell-based

NRF2-MAFG, sequence (O15525 whole entry, one chain of several): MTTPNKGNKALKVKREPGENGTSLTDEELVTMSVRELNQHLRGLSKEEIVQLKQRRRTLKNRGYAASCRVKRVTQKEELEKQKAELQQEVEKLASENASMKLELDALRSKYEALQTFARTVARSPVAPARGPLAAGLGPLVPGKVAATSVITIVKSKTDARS

## N#CC1(c2ccc(NC(=O)c3cccnc3NCc3ccncc3)cc2)CCCC1 [RIVOCERANIB]
A2780
  IC50: ~20 µM
Caov-4
  IC50: ~20 µM
SK-OV-3
  IC50: ~20 µM

## O=c1cc(-c2ccccc2)oc2cc(O)cc(O)c12 [CHRYSIN]
cells
  IC50: ~30 µM

## O=c1cc(-c2ccc(O)cc2)oc2cc(O)cc(O)c12 [APIGENIN]
cells
  IC50: ~50 µM

## CC(C)[C@]12O[C@H]1[C@@H]1O[C@]13[C@]1(O[C@H]1C[C@H]1C4=C(CC[C@@]13C)C(=O)OC4)[C@@H]2O [TRIPTOLIDE]
[1]
  IC50: 0.0205 µM

## O=C(CC1NCCCC1O)Cn1cnc2cc(Br)c(Cl)cc2c1=O (stereo not drawn) [HALOFUGINONE]
[2]
  IC50: 0.0372 µM
[3]
  IC50: 0.0223 µM

## CC(C)(C)c1ccc(Cn2nc(-c3ccc(Cl)cc3)cc2C(=O)NO)cc1
THP-1
  IC50: 5.33 µM

## COc1c(O)cc(O)c2c(=O)cc(-c3ccccc3)oc12 [WOGONIN]
[4]
  IC50: ~150 µM

## Cc1ccccc1C(=O)N1CCc2cc(-c3nc(NC(=O)Cc4ccc5c(c4)OCO5)sc3C)ccc21
NRF2-MAFG
  IC50: 1.9 µM

## CC(C)c1cccc(=O)c(O)c1 [HINOKITIOL]
U-87 MG
  IC50: 316 µM
T98G
  IC50: 152 µM
